The values that follow come from patent US8609692B2, “TRPV1 antagonists” (AbbVie Inc., priority 2008, dated 2013).

Data set [1] has as its target T1, human TRPV1 receptor (hTRPV1) (Homo sapiens, UniProt Q8NER1).
T1 construct: expressed in transfected cells
Briefly: Capsaicin activation assay (Ca2+ influx, FLIPR). It is filed as cell-based. Conditions: 0.05 μM capsaicin, 1321N1 cells expressing hTRPV1. Here is the method:
Dulbecco's modified Eagle medium (D-MEM) (with 4.5 mg/mL glucose) and fetal bovine serum were obtained from Hyclone Laboratories, Inc. (Logan, Utah). Dulbecco's phosphate-buffered saline (D-PBS) (with 1 mg/mL glucose and 3.6 mg/l Na pyruvate, without phenol red), L-glutamine, hygromycin B, and Lipofectamine® were obtained from Life Technologies (Grand Island, N.Y.). G418 sulfate was obtained from Calbiochem-Novabiochem Corp. (San Diego, Calif.). Capsaicin (8-methyl-N-vanillyl-6-nonenamide) was obtained from Sigma-Aldrich, Co. (St. Louis, Mo.). Fluo-4 AM (N-[4-[6-[(acetyloxy)methoxy]-2,7-difluoro-3-oxo-3H-xanthen-9-yl]-2-[2-[2-[bis[2-[(acetyloxy)methoxy]-2-oxyethyl]amino]-5-methyl-phenoxy]ethoxy]phenyl]-N-[2-[(acetyloxy)methoxy]-2-oxyethyl]-glycine, (acetyloxy)methyl ester) was purchased from Molecular Probes (Eugene, Oreg.).
The cDNAs for the human TRPV1 receptor (hTRPV1) were isolated by reverse transcriptase-polymerase chain reaction (RT-PCR) from human small intestine poly A+RNA supplied by Clontech (Palo Alto, Calif.) using primers designed surrounding the initiation and termination codons identical to the published sequences (Hayes et al. Pain 2000, 88, 205-215). The resulting cDNA PCR products were subcloned into pCIneo mammalian expression vector (Promega) and fully sequenced using fluorescent dye-terminator reagents (Prism, Perkin-Elmer Applied Biosystems Division) and a Perkin-Elmer Applied Biosystems Model 373 DNA sequencer or Model 310 genetic analyzer. Expression plasmids encoding the hTRPV1 cDNA were transfected individually into 1321N1 human astrocytoma cells using Lipofectamine®. Forty-eight hours after transfection, the neomycin-resistant cells were selected with growth medium containing 800 μg/mL Geneticin (Gibco BRL). Surviving individual colonies were isolated and screened for TRPV1 receptor activity. Cells expressing recombinant homomeric TRPV1 receptors were maintained at 37° C. in D-MEM containing 4 mM L-glutamine, 300 μg/mL G418 (Cal-biochem) and 10% fetal bovine serum under a humidified 5% CO2 atmosphere.
The functional activity of compounds at the TRPV1 receptor was determined with a Ca^2+ influx assay and measurement of intracellular Ca^2+ levels ([Ca^2+]i). All compounds were tested over an 11-point half-log concentration range. Compound solutions were prepared in D-PBS (4× final concentration), and diluted serially across 96-well v-bottom tissue culture plates using a Biomek 2000 robotic automation workstation (Beckman-Coulter, Inc., Fullerton, Calif.). A 0.2 μM solution of the TRPV1 agonist capsaicin was also prepared in D-PBS. The fluorescent Ca^2+ chelating dye Fluo-4 AM was used as an indicator of the relative levels of [Ca^2+]i in a 96-well format using a Fluorescence Imaging Plate Reader (FLIPR) (Molecular Devices, Sunnyvale, Calif.). Cells were grown to confluency in 96-well black-walled tissue culture plates. Then, prior to the assay, the cells were loaded with 100 μL per well of Fluo-4 AM (2 μM, in D-PBS) for 1-2 hours at 23° C. Washing of the cells was performed to remove extracellular Fluo-4 AM (2×1 mL D-PBS per well), and afterward, the cells were placed in the reading chamber of the FLIPR instrument. 50 μL of the compound solutions were added to the cells at the 10 second time mark of the experimental run. Then, after a 3-minute time delay, 50 μL of the capsaicin solution was added at the, 190 second time mark (0.05 μM final concentration)(final volume=200 μL) to challenge the TRPV1 receptor. Time length of the experimental run was 240 seconds. Fluorescence readings were made at 1 to 5 second intervals over the course of the experimental run. The peak increase in relative fluorescence units (minus baseline) was calculated from the 190 second time mark to the end of the experimental run, and expressed as a percentage of the 0.05 μM capsaicin (control) response. […]

Data set [2] can be described thus: Rat telemetry protocol (core body temperature). The format is in vivo. Conditions: core body temperature of rats at one hour post dosing (100 μmol/kg, p.o.), relative to vehicle. Here is the method: Male, Sprague Dawley rats, 225-250 grams were anesthetized with Sevoflurane (Abbott Laboratories). Rats were placed on a heating pad and covered with a sterile surgical drape. A ventral midline abdominal incision was made and sterile cotton tip applicators were used to gently move internal tissue and expose the abdominal aorta for implantation of the telemetry catheter (Data Sciences International; TL11M2-050-PXT). Blood flow was temporarily stopped to the lower extremities (5-7 min) with Diffenbach clamps to allow the insertion of the telemetry catheter into the abdominal aorta. Once inserted, a sterile cellulose patch was placed over the catheter/aorta and secured using a small amount of tissue adhesive (Vetbond, 3M). Once catheter placement was complete, the clamps were removed and blood flow was restored to the lower extremities. The transmitter was placed in the intraperitoneal cavity. The transmitter suture rib was sewn into the abdominal sutures to secure it in place. The skin was closed using sterile wound clips and the animal removed from Sevoflurane. Buprenex ([…] s.c.; Phoenix) was administered for post-operative analgesia. Animals were maintained on a heating pad until ambulatory, and then individually housed with food and water ad lib. Surgical staples were removed after 7-10 days post-implantation. Rats were allowed a 2-week post-surgical recovery period before treatment with test compound. Oral dosing (p.o.) was at time zero, with rats receiving a single dose of vehicle (10% EtOH, 20% Tween-80, 70% PEG-400) or a 100 μmol/kg dose of compound dissolved in vehicle. Temperature measurements were recorded every 15 minutes for the duration of the study (24 hours).
The term “core body temperature” as used herein, means the temperature measured in the intraperitoneal cavity.

T1 sequence (Q8NER1 whole entry): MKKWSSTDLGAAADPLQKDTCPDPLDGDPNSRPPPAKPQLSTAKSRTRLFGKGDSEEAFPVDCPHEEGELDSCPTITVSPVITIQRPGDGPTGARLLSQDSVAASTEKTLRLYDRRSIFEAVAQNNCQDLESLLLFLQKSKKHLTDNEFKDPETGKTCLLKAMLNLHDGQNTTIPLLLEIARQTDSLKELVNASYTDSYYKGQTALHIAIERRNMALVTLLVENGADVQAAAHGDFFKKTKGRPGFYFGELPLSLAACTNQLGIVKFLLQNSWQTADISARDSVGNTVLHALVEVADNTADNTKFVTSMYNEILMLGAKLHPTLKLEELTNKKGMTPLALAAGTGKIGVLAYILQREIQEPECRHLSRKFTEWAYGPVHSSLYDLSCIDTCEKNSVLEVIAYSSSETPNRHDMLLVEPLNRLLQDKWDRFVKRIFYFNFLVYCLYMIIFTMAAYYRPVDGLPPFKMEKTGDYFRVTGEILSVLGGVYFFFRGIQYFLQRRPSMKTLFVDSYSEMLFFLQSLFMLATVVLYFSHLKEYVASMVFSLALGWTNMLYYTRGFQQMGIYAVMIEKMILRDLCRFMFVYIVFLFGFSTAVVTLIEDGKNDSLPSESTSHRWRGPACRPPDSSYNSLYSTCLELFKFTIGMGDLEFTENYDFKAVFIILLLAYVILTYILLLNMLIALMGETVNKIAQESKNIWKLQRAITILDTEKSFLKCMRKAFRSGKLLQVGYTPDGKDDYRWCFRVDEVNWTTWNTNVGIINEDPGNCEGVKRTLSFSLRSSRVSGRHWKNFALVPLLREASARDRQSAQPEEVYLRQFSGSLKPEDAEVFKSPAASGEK

The IC50 is the concentration at which inhibition is half-maximal. A lower IC50 goes with greater potency. As for `Cn1ncc2c(NC(=O)N[C@@H]3CCOc4c(OC(F)(F)F)cccc43)cccc21` [Example 79, N-(1-methyl-1H-indazol-4-yl)-N′-[(4R)-8-(trifluoromethoxy)-3,4-dihydro-2H-chromen-4-yl]urea], the IC50 in data set [1] came out at 4 nM. For the same compound, in data set [2], the “Δ Temp” value was determined as 1.5 °C.

The compound `Cc1cc2c(NC(=O)N[C@@H]3CC(C)(C)Oc4cc(OC(F)(F)F)ccc43)cccc2cn1` [Example 80, N-[(4R)-2,2-dimethyl-7-(trifluoromethoxy)-3,4-dihydro-2H-chromen-4-yl]-N′-(3-methylisoquinolin-5-yl)urea] registered an IC50 in data set [1] of 8 nM. The “Δ Temp” value in data set [2] stood at 1.7 °C.

Compound `CCC1(CC)C[C@@H](NC(=O)Nc2cccc3ccncc23)c2ccc(F)cc2O1` [Example 82, N-[(4R)-2,2-diethyl-7-fluoro-3,4-dihydro-2H-chromen-4-yl]-N′-isoquinolin-8-ylurea] yielded a concentration for half-maximal inhibition (IC50) in data set [1] of 18 nM. Moreover, the “Δ Temp” value in data set [2] came to 1.5 °C.

Take `O=C(Nc1cccc2c1C[C@H](O)CC2)N[C@@H]1CC(CF)(CF)Oc2cc(F)ccc21` [Example 89, N-[(4R)-7-fluoro-2,2-bis(fluoromethyl)-3,4-dihydro-2H-chromen-4-yl]-N′-[(7R)-7-hydroxy-5,6,7,8-tetrahydronaphthalen-1-yl]urea]: the IC50 in data set [1] was 29 nM. Moreover, the “Δ Temp” value in data set [2] came out at 1.3 °C.

In data set [1], `CC1(C)C[C@@H](NC(=O)Nc2cccc3cnc(N)cc23)c2ccc(C(F)(F)F)cc2O1` [Example 90, N-(3-aminoisoquinolin-5-yl)-N′-[(4R)-2,2-dimethyl-7-(trifluoromethyl)-3,4-dihydro-2H-chromen-4-yl]urea] had a 50% inhibitory concentration (IC50) of 17 nM. In addition, in data set [2], the “Δ Temp” value came out at 1.0 °C.

Compound `Cn1ncc2c(NC(=O)N[C@@H]3CC(CF)(CF)Oc4cc(OC(F)(F)F)ccc43)cccc21` [Example 92, N-[(4R)-2,2-bis(fluoromethyl)-7-(trifluoromethoxy)-3,4-dihydro-2H-chromen-4-yl]-N′-(1-methyl-1H-indazol-4-yl)urea] showed a concentration for half-maximal inhibition (IC50) in data set [1] of 21 nM. The “Δ Temp” value in data set [2] is 0.8 °C.

Take `O=C(Nc1cccc2ccncc12)N[C@@H]1CC(CF)(CF)Oc2cc(C(F)(F)F)ccc21` [Example 93, N-[(4R)-2,2-bis(fluoromethyl)-7-(trifluoromethyl)-3,4-dihydro-2H-chromen-4-yl]-N′-isoquinolin-8-ylurea]: in data set [1], the IC50 was found to be 32 nM. The “Δ Temp” value in data set [2] is 1.1 °C.

`Cc1cc2c(NC(=O)N[C@@H]3CC(C)(C)Oc4c3ccc(C(F)(F)F)c4F)cccc2cn1` [Example 99, N-[(4R)-8-fluoro-2,2-dimethyl-7-(trifluoromethyl)-3,4-dihydro-2H-chromen-4-yl]-N′-(3-methylisoquinolin-5-yl)urea] registered an IC50 in data set [1] of 7 nM. Moreover, the “Δ Temp” value in data set [2] came out at 0.8 °C.

On to `CC1(C)C[C@@H](NC(=O)Nc2cccc3c2C[C@@H](O)CC3)c2ccc(Cl)cc2O1` [Example 103, N-[(4R)-7-chloro-2,2-dimethyl-3,4-dihydro-2H-chromen-4-yl]-N′-[(7S)-7-hydroxy-5,6,7,8-tetrahydronaphthalen-1-yl]urea], for which the half-inhibitory concentration (IC50) in data set [1] is 21 nM. For the same compound, in data set [2], the “Δ Temp” value stood at 1.3 °C.

As to `O=C(Nc1cccc2c1C[C@@H](O)CC2)N[C@@H]1CC(CF)(CF)Oc2cc(Cl)ccc21` [Example 104, N-[(4R)-7-chloro-2,2-bis(fluoromethyl)-3,4-dihydro-2H-chromen-4-yl]-N′-[(7S)-7-hydroxy-5,6,7,8-tetrahydronaphthalen-1-yl]urea], the 50% inhibitory concentration (IC50) in data set [1] came to 25 nM. For the same compound, the “Δ Temp” value in data set [2] stood at 1.1 °C.

In data set [1], `O=C(Nc1cccc2c1C[C@H](O)CC2)N[C@@H]1CC(CF)(CF)Oc2cc(Cl)ccc21` [Example 105, N-[(4R)-7-chloro-2,2-bis(fluoromethyl)-3,4-dihydro-2H-chromen-4-yl]-N′-[(7R)-7-hydroxy-5,6,7,8-tetrahydronaphthalen-1-yl]urea] yielded an IC50 of 35 nM. Besides, the “Δ Temp” value in data set [2] came to 1.1 °C.

In data set [1], `O=C(Nc1cccc2c1C[C@@H](O)CC2)N[C@@H]1CC(CF)(CF)Oc2c(F)cccc21` [Example 107, N-[(4R)-8-fluoro-2,2-bis(fluoromethyl)-3,4-dihydro-2H-chromen-4-yl]-N′-[(7S)-7-hydroxy-5,6,7,8-tetrahydronaphthalen-1-yl]urea] showed a half-inhibitory concentration (IC50) of 53 nM. Moreover, the “Δ Temp” value in data set [2] came to 0.9 °C.

The compound `CC1(C)C[C@@H](NC(=O)Nc2cccc3c2C[C@H](O)CC3)c2ccc(F)c(Cl)c2O1` [Example 108, N-[(4R)-8-chloro-7-fluoro-2,2-dimethyl-3,4-dihydro-2H-chromen-4-yl]-N′-[(7R)-7-hydroxy-5,6,7,8-tetrahydronaphthalen-1-yl]urea] came in with a concentration for half-maximal inhibition (IC50) in data set [1] of 21 nM. Moreover, the “Δ Temp” value in data set [2] came out at 1.2 °C.

In data set [1], `CC1(C)C[C@@H](NC(=O)Nc2cccc3c2C[C@@H](O)CC3)c2ccc(F)c(Cl)c2O1` [Example 109, N-[(4R)-8-chloro-7-fluoro-2,2-dimethyl-3,4-dihydro-2H-chromen-4-yl]-N′-[(7S)-7-hydroxy-5,6,7,8-tetrahydronaphthalen-1-yl]urea] had an IC50 of 21 nM. Moreover, the “Δ Temp” value in data set [2] worked out at 1.2 °C.

As for `O=C(Nc1cccc2c1C[C@@H](O)CC2)N[C@@H]1CC(CF)(CF)Oc2cc(C(F)(F)F)ccc21` [Example 112, N-[(4R)-2,2-bis(fluoromethyl)-7-(trifluoromethyl)-3,4-dihydro-2H-chromen-4-yl]-N′-[(7S)-7-hydroxy-5,6,7,8-tetrahydronaphthalen-1-yl]urea], in data set [1], half-maximal inhibition (IC50) was put at 34 nM. The “Δ Temp” value in data set [2] amounted to 1.4 °C.

As for `CC1(C)C[C@@H](NC(=O)Nc2cccc3c2C[C@@H](O)CC3)c2ccc(F)c(F)c2O1` [Example 114, N-[(4R)-7,8-difluoro-2,2-dimethyl-3,4-dihydro-2H-chromen-4-yl]-N′-[(7S)-7-hydroxy-5,6,7,8-tetrahydronaphthalen-1-yl]urea], in data set [1], the IC50 is 15 nM. For the same compound, the “Δ Temp” value in data set [2] was 0.6 °C.

In data set [1], `CC1(C)C[C@@H](NC(=O)Nc2cccc3c2C[C@H](O)CC3)c2ccc(OC(F)(F)F)cc2O1` [Example 115, N-[(4R)-2,2-dimethyl-7-(trifluoromethoxy)-3,4-dihydro-2H-chromen-4-yl]-N′-[(7R)-7-hydroxy-5,6,7,8-tetrahydronaphthalen-1-yl]urea] had an IC50 of 23 nM. In addition, the “Δ Temp” value in data set [2] is 1.2 °C.
